Values joined by “and” are separate entries in the source; they are usually repeats but may differ in a detail not shown here. Equal entries are not always repeated.
System: Apoprotein E deficient mice
Test: Plasma lipid analysis using an autoanalyzer (TC, Trigs, PL, FC, CE by calculation)
Format: in vivo
Design: TC, plasma / FC, plasma / CE, plasma / Trigs, plasma / PL, plasma / TC / FC / CE / Trigs / PL: unit not given here
Settings: for CE: plasma cholesterol ester; for FC: plasma free cholesterol; for PL: plasma phospholipid; for TC: plasma total cholesterol; for Trigs: plasma triglycerides
From the text: Apoprotein E deficient mice (Jackson Laboratories, 600 Main Street, Bar Harbor, Me.) were used in this study. The mice were male, 7-8 weeks of age, and between 18-20 g in weight. An initial total cholesterol measurement was made on 30 mice, and the mice were grouped into two groups of 15 to match the total cholesterol measurements. Both groups were fed a “western diet” (40 kcal % butterfat, 0.15% [wt/wt] cholesterol, Harlan Teklad diet TD-88137). Starting at t=0, the control group of 15 mice received vehicle only (phosphate buffered saline at pH 7.4), while the test group of 15 mice received aromatic-cationic peptide reconstituted in phosphate buffered saline. Body weights of the mice were recorded weekly, and mortality checks were performed daily.
The aromatic-cationic peptide D-Arg-2′6′-Dmt-Lys-Phe-NH2 (sterile lyophilized powder, reconstituted in phosphate buffered saline) was tested. For the 12-week study, test mice received a single, daily dose of the peptide, subcutaneously at 1 mg/kg. Control mice received a single daily dose of vehicle.
Experimental Protocol/Data Collection. Blood was collected every four weeks (orbital plexis) under isoflurane anesthesia (3%) and blood lipids were determined. Plasma lipid analysis was conducted for both groups at t=0, 4, […], 8, and 12 weeks. Plasma lipid analysis using an autoanalyzer included total cholesterol (TC), triglycerides (Trigs), phospholipids (PL), free cholesterol (FC), and cholesterol ester (CE, by calculation). Gel electrophoresis was used to measure levels of high-density lipoprotein cholesterol (HDL-C), low-density lipoprotein cholesterol (LDL-C), and very low-density lipoprotein cholesterol (VLDL-C).

[1] = Week 0, group average of test group
[2] = at 4, 8 and 12 week time points, versus vehicle
[3] = week 4, individual test mouse (sample #16-30), listed as aromatic-cationic peptide
[4] = week 8, individual test mouse (sample #16-30), listed as aromatic-cationic peptide
[5] = week 12, AVE of 15 test animals
[6] = week 12, individual test mouse (sample #16-30), listed as aromatic-cationic peptide

D-Arg-2′6′-Dmt-Lys-Phe-NH2
CE, plasma (Week 0 (t=0, start of dosing), individual mouse of test group, by calculation): 183 and 197 and 242 and 192 and 207 and 204 and 240 and 366 and 196 and 270 and 297 and 382 and 306 and 331 and 588
FC, plasma, AVE [1]: 142
PL, plasma, AVE [1]: 309
TC, plasma, AVE [1]: 422
Trigs, plasma, AVE [1]: 140
CE, plasma, AVE (Week 0, group average of test group, by calculation): 280
plasma cholesterol ester, in words [2]: reduces
plasma free cholesterol, in words [2]: reduces
plasma phospholipid levels, in words [2]: reduces
plasma total cholesterol, in words [2]: reduces
plasma triglycerides, in words [2]: reduces
CE (week 4, AVE of 15 test animals): 610
CE [3]: 491 and 580 and 622 and 731 and 626 and 417 and 574 and 660 and 515 and 536 and 630 and 761 and 581 and 732 and 701
CE (week 8, AVE of 15 test animals): 932
CE [4]: 940 and 710 and 1119 and 865 and 1153 and 653 and 714 and 1085 and 715 and 670 and 1073 and 1048 and 839 and 1130 and 1267
CE [5]: 681
CE [6]: 607 and 335 and 597 and 640 and 1002 and 477 and 445 and 476 and 675 and 687 and 960 and 869 and 339 and 904 and 1201
FC (week 4, AVE of 15 test animals): 387
FC [3]: 308 and 344 and 354 (2×) and 408 and 412 and 256 and 366 and 386 and 320 and 286 and 396 and 462 and 516 and 636
FC (week 8, AVE of 15 test animals): 350
FC [4]: 322 and 294 (2×) and 386 and 318 and 392 and 290 and 388 and 308 (2×) and 286 and 362 and 366 and 404 and 530
FC [5]: 322
FC [6]: 291 and 205 and 287 and 296 and 418 and 242 and 229 and 269 and 315 and 312 and 419 and 386 and 219 and 413 and 535
PL (week 4, AVE of 15 test animals): 514
PL [3]: 422 and 482 and 452 and 560 and 526 and 320 and 506 and 556 and 446 and 416 and 516 and 580 and 510 and 666 and 750
PL (week 8, AVE of 15 test animals): 493
PL [4]: 416 and 456 and 474 and 448 and 516 (2×) and 424 and 480 and 488 and 436 and 440 and 556 and 470 and 540 and 728
PL [5]: 434
PL [6]: 366 and 318 and 320 and 432 and 491 and 321 and 363 and 394 and 374 and 423 and 536 and 521 and 340 and 575 and 741
TC (week 4, AVE of 15 test animals): 997
TC [3]: 799 and 924 and 976 and 1139 and 1038 and 673 and 940 and 1046 and 835 and 822 and 1026 and 1223 and 935 and 1248 and 1337
TC (week 8, AVE of 15 test animals): 1282
TC [4]: 1262 and 1004 and 1505 and 1183 and 1545 and 943 and 1008 and 1473 and 1023 and 956 and 1435 and 1414 and 1147 and 1534 and 1797
TC [5]: 1003
TC [6]: 898 and 540 and 884 and 937 and 1420 and 719 and 674 and 745 and 990 and 999 and 1379 and 1255 and 558 and 1317 and 1736
Trigs (week 4, AVE of 15 test animals): 58
Trigs [3]: 18 (2×) and 39 and 28 and 85 and 59 (2×) and 46 and 108 and 33 and 44 (2×) and 67 and 80 and 144
Trigs (week 8, AVE of 15 test animals): 57
Trigs [4]: 34 (3×) and 31 (2×) and 51 (2×) and 48 and 53 and 43 and 75 and 63 and 39 and 67 and 195
Trigs [5]: 55
Trigs [6]: 27 and 49 and 10 and 37 (2×) and 18 and 39 (2×) and 13 and 25 and 74 and 89 and 97 and 112 and 158
